The test is described as follows: Compound was evaluated for the inhibition of Aminoimidazole carboxamide ribonucleotide formyl transferase (AICAR) with (6R) tetrahydrofolate as substrate.

Structures are written as SMILES.

The term IC50 denotes the concentration at which inhibition is half-maximal. Low values mean greater potency, high ones weaker potency. `Cc1c2cnc3nc(N)[nH]c(=O)c3c2c(C)n1C`: the IC50 was more than 95 µM.

For the origin of these results see BindingDB's records for doi:10.1021/jm00098a013 (Duquesne University, 1992).
